Laboratory results as given in US20250206730A1 (AUTOTELIC BIO INC., priority 2022, published 2025).

Key:
ALK5 kinase = biological target: T1, ALK5 kinase (Homo sapiens, UniProt P36897); assay: LanthaScreen Eu Kinase Binding Assay; settings: Kinase Tracer 178, Eu-anti-GST Antibody, read-out: IC50 Enzyme
T1 sequence (P36897 34-503): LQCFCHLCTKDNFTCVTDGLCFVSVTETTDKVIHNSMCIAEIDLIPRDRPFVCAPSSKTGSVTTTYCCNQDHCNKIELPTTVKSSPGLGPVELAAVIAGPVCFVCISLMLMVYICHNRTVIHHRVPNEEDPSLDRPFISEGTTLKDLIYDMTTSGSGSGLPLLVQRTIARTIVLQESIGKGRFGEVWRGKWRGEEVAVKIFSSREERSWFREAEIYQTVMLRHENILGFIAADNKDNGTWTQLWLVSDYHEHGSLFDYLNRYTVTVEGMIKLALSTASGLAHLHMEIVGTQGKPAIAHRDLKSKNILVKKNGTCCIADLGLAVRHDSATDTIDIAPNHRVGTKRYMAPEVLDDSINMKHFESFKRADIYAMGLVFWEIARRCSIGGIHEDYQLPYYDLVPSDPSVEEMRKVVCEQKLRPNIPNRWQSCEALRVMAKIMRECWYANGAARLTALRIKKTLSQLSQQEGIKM
Method in brief: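 Compound (1% DMSO final) preincubated 30 min at RT with GST-tagged ALK5, then Eu-anti-GST antibody and Kinase Tracer 178 added for 60 min at RT. TR-FRET read at 340 nm excitation; 665/615 nm emission ratio falls as compound binding rises.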

TGF-β signaling = assay: Assay for evaluating cellular inhibition of TGF-β signaling, HEK293 (SBE reporter) luciferase reporter; type: cell-based; settings: Homo sapiens; HEK293 (SBE reporter) stable cells, 0.5% FBS, 2 h pre-treatment, TGF-β1 2 ng/mL 24 h; read-out: IC50 HEK 293 Cell
Description: [Example 2] Assay for Evaluating Cellular Inhibition of TGF-β Signaling
4T1 (SBE-luc2P) transient pool that have SBE-luc2P (hygro) expression plasmid or HEK293 (SBE reporter) stable cells (BPS bioscience) were seeded at 6×10^3 cells/well or 2.5×10^4 cells/well in 96-well plate, respectively. 4T1 (SBE-luc2P) transient pool were pre-treated with novel compound synthesized in Example 1 above in 0.2% FBS at approximately 60% confluence at 37° C. in 5% CO2. Also, HEK293 (SBE reporter) stable cells were pre-treated with each test compounds of formula in 0.5% FBS at approximately 80% confluence at 37° C. in 5% CO2. After 2 hours, cells were treated with TGF-β1 (2 ng/mL) for 24 h at 37° C. in 5% CO2. Cell lysates were prepared using Luciferase Assay (Promega) according to the manufacturer's instruction, and luminescence was measured by a plate reader, Biotek Synergy H1 (Vermont, USA).

SMILES: CCc1nc(-c2cccc(C)n2)c(Oc2ccnc(Nc3ccnc(C(N)=O)c3)c2)s1 [A-264, 4-((4-((2-Ethyl-4-(6-methylpyridin-2-yl)thiazol-5-yl)oxy)pyridin-2-yl)amino)picolinamide]
- IC50 (ALK5 kinase): < 100 nM
- IC50 (TGF-β signaling): < 100 nM

SMILES: CCc1nc(-c2cccc(C)n2)c(Oc2ccnc(Nc3ccc(C(=O)NCCN(C)C)cn3)c2)s1 [A-269, N-(2-(Dimethylamino)ethyl)-6-((4-((2-ethyl-4-(6-methylpyridin-2-yl)thiazol-5-yl)oxy)pyridin-2-yl)amino)nicotinamide]
- IC50 (ALK5 kinase): < 100 nM
- IC50 (TGF-β signaling): < 100 nM

SMILES: CCc1nc(-c2cccc(C)n2)c(Oc2ccnc(Nc3ccc(C(=O)OCC4CC4)cn3)c2)s1 [A-270]
- IC50 (ALK5 kinase): < 100 nM
- IC50 (TGF-β signaling): < 100 nM

SMILES: CCc1nc(-c2cccc(C)n2)c(Oc2ccnc(Nc3ccc(C(=O)OCCN(C)C)cn3)c2)s1 [A-271, 2-(Dimethylamino)ethyl 6-((4-((2-ethyl-4-(6-methylpyridin-2-yl)thiazol-5-yl)oxy)pyridin-2-yl)amino)nicotinate]
- IC50 (ALK5 kinase): < 100 nM
- IC50 (TGF-β signaling): < 100 nM

SMILES: Cc1cccc(-c2nc(C3CC3)sc2Oc2ccnc(Nc3cc(C(N)=O)ccn3)c2)n1 [A-276, 2-((4-((2-Cyclopropyl-4-(6-methylpyridin-2-yl)thiazol-5-yl)oxy)pyridin-2-yl)amino)isonicotinamide]
- IC50 (ALK5 kinase): < 100 nM
- IC50 (TGF-β signaling): < 100 nM

SMILES: Cc1cccc(-c2nc(C3CC3)sc2Oc2ccnc(Nc3cccc(S(N)(=O)=O)c3)c2)n1 [A-277, 3-((4-((2-Cyclopropyl-4-(6-methylpyridin-2-yl)thiazol-5-yl)oxy)pyridin-2-yl)amino)benzenesulfonamide]
- IC50 (ALK5 kinase): < 100 nM
- IC50 (TGF-β signaling): < 100 nM

SMILES: Cc1cccc(-c2nc(C3CC3)sc2Oc2ccnc(Nc3cccc(C(N)=O)n3)c2)n1 [A-278, 6-((4-((2-Cyclopropyl-4-(6-methylpyridin-2-yl)thiazol-5-yl)oxy)pyridin-2-yl)amino)picolinamide]
- IC50 (ALK5 kinase): < 100 nM
- IC50 (TGF-β signaling): < 100 nM

SMILES: CNC(=O)c1cccc(Nc2cc(Oc3sc(C4CC4)nc3-c3cccc(C)n3)ccn2)n1 [A-279, 6-((4-((2-Cyclopropyl-4-(6-methylpyridin-2-yl)thiazol-5-yl)oxy)pyridin-2-yl)amino)-N-methylpicolinamide]
- IC50 (ALK5 kinase): < 100 nM
- IC50 (TGF-β signaling): < 100 nM

SMILES: CNC(=O)c1ccnc(Nc2cc(Oc3sc(C4CC4)nc3-c3cccc(C)n3)ccn2)c1 [A-280, 2-((4-((2-Cyclopropyl-4-(6-methylpyridin-2-yl)thiazol-5-yl)oxy)pyridin-2-yl)amino)-N-methylisonicotinamide]
- IC50 (ALK5 kinase): < 100 nM
- IC50 (TGF-β signaling): < 100 nM

SMILES: CNC(=O)c1cccc(Nc2cc(Oc3sc(C4CC4)nc3-c3cccc(C)n3)ccn2)c1 [A-281, 3-((4-((2-Cyclopropyl-4-(6-methylpyridin-2-yl)thiazol-5-yl)oxy)pyridin-2-yl)amino)-N-methylbenzamide]
- IC50 (TGF-β signaling): < 100 nM

SMILES: CNC(=O)c1ccc(Nc2cc(Oc3sc(C4CC4)nc3-c3cccc(C)n3)ccn2)nc1 [A-282, 6-((4-((2-Cyclopropyl-4-(6-methylpyridin-2-yl)thiazol-5-yl)oxy)pyridin-2-yl)amino)-N-methylnicotinamide]
- IC50 (TGF-β signaling): < 100 nM

SMILES: O=C(O)c1ccc(Nc2cc(Oc3oc(C4CC4)nc3-c3ccccc3)ccn2)nc1 [A-293, 6-((4-((2-Cyclopropyl-4-phenyloxazol-5-yl)oxy)pyridin-2-yl)amino)nicotinic acid]
- IC50 (ALK5 kinase): < 100 nM
- IC50 (TGF-β signaling): < 100 nM

SMILES: NC(=O)c1ccc(Nc2cc(Oc3oc(C4CC4)nc3-c3ccccc3)ccn2)nc1 [A-294, 6-((4-((2-Cyclopropyl-4-phenyloxazol-5-yl)oxy)pyridin-2-yl)amino)nicotinamide]
- IC50 (ALK5 kinase): < 100 nM
- IC50 (TGF-β signaling): < 100 nM

SMILES: O=C(O)c1ccc(Nc2cc(Oc3oc(C4CC4)nc3-c3ccccc3)ccn2)cc1 [A-295, 4-((4-((2-Cyclopropyl-4-phenyloxazol-5-yl)oxy)pyridin-2-yl)amino)benzoic acid]
- IC50 (ALK5 kinase): < 100 nM
- IC50 (TGF-β signaling): < 100 nM

SMILES: NC(=O)c1cccc(Nc2cc(Oc3oc(C4CC4)nc3-c3ccccc3)ccn2)c1 [A-296, 3-((4-((2-Cyclopropyl-4-phenyloxazol-5-yl)oxy)pyridin-2-yl)amino)benzamide]
- IC50 (TGF-β signaling): < 100 nM

SMILES: CNC(=O)c1cccc(Nc2cc(Oc3oc(C4CC4)nc3-c3ccccc3)ccn2)c1 [A-297, 3-((4-((2-Cyclopropyl-4-phenyloxazol-5-yl)oxy)pyridin-2-yl)amino)-N-methylbenzamide]
- IC50 (TGF-β signaling): < 100 nM

SMILES: NS(=O)(=O)c1cccc(Nc2cc(Oc3oc(C4CC4)nc3-c3ccccc3)ccn2)c1 [A-298, 3-((4-((2-Cyclopropyl-4-phenyloxazol-5-yl)oxy)pyridin-2-yl)amino)benzenesulfonamide]
- IC50 (TGF-β signaling): < 100 nM

SMILES: NC(=O)c1cccc(Nc2cc(Oc3oc(C4CC4)nc3-c3ccccc3)ccn2)n1 [A-299, 6-((4-((2-Cyclopropyl-4-phenyloxazol-5-yl)oxy)pyridin-2-yl)amino)picolinamide]
- IC50 (TGF-β signaling): < 100 nM

SMILES: O=C(O)c1cccc(Nc2cc(Oc3oc(C4CC4)nc3-c3ccccc3)ccn2)c1 [A-300, 3-((4-((2-Cyclopropyl-4-phenyloxazol-5-yl)oxy)pyridin-2-yl)amino)benzoic acid]
- IC50 (TGF-β signaling): < 100 nM

SMILES: O=C(O)c1cccc(Nc2cc(Oc3oc(C4CC4)nc3-c3ccccc3)ccn2)n1 [A-301, 6-((4-((2-Cyclopropyl-4-phenyloxazol-5-yl)oxy)pyridin-2-yl)amino)picolinic acid]
- IC50 (TGF-β signaling): < 100 nM

SMILES: CNC(=O)c1cccc(Nc2cc(Oc3oc(C4CC4)nc3-c3ccccc3)ccn2)n1 [A-302, 6-((4-((2-Cyclopropyl-4-phenyloxazol-5-yl)oxy)pyridin-2-yl)amino)-N-methylpicolinamide]
- IC50 (TGF-β signaling): < 100 nM

SMILES: CCc1nc(-c2ccccc2)c(Oc2ccnc(Nc3ccc(N4CCC(NC)C4)cn3)c2)s1 (stereo not shown) [A-312, 4-((2-Ethyl-4-phenylthiazol-5-yl)oxy)-N-(5-(3-(methylamino)pyrrolidin-1-yl)pyridin-2-yl)pyridin-2-amine]
- IC50 (TGF-β signaling): < 100 nM
